Values of other authors as cited in patent US20240350389A1, “METHOD FOR DYEING KERATINOUS MATERIAL, IN PARTICULAR HUMAN HAIR” (HENKEL AG & CO. KGAA, priority 2021, published 2024).

Conditions: 25° C.

water solubility	SMILES	solubility in water
	O=[N+]([O-])c1cc([N+](=O)[O-])c2ccc(S(=O)(=O)O)cc2c1O.[Na].[Na] [Acid yellow 1, 8-hydroxy-5,7-dinitro-2-naphthalenesulfonic acid disodium]	at least 40 g/L
more than 20 wt %	CCN(Cc1cccc(S(=O)(=O)[O-])c1)c1ccc(C(=C2C=CC(=[N+](CC)Cc3cccc(S(=O)(=O)[O-])c3)C=C2)c2ccccc2S(=O)(=O)[O-])cc1.[Na+].[Na+] [Acid Blue 9]	
	O=S(=O)([O-])c1ccc(N=Nc2c(O)ccc3ccccc23)cc1.[Na+] [Acid Orange 7, sodium salt of 4-[(2-hydroxy-1-naphthyl)azo]benzene sulfonate]	more than 7 g/L
	Nc1cc(S(=O)(=O)[O-])cc2cc(S(=O)(=O)[O-])c(N=Nc3ccccc3)c(O)c12.[Na+].[Na+] [Acid Red 33, disodium salt of 5-amino4-hydroxy-3-(phenylazo)-naphthalene2,7-disulfonate]	2500 µg/mL
